Experimental data as given in US10428087B2, “Pyrimidinones as PI3K inhibitors” (Incyte Corporation, priority 2009, dated 2019).

Legend:
PI3Kγ = PI3Kγ (Homo sapiens (Human), UniProt P48736); test: PI3K enzyme assay, [γ-33P]ATP filter plate (Example A2), PI3Kγ; assay type: biochemical; settings: read-out: PI3Kγ^c IC50
Experimental: Materials: Lipid kinase substrate, phosphoinositol-4,5-bisphosphate (PIP2), was purchased from Echelon Biosciences (Salt Lake City, Utah). PI3K isoforms α, β, δ and γ were purchased from Millipore (Bedford, Mass.). ATP, MgCl2, DTT, EDTA, MOPS and CHAPS were purchased from Sigma—Aldrich (St. Louis, Mo.).
(§1) The kinase reaction was conducted in clear-bottom 96-well plate from Thermo Fisher Scientific in a final volume of 24 μL. Inhibitors were first diluted serially in DMSO and added to the plate wells before the addition of other reaction components. The final concentration of DMSO in the assay was 0.5%. The PI3K assays were carried out at room temperature in 20 mM MOPS, pH 6.7, 10 mM MgCl2, 5 mM DTT and CHAPS 0.03%. The reaction mixture was prepared containing 50 μM PIP2, kinase and varying concentration of inhibitors. Reactions were initiated by the addition of ATP containing 2.2 μCi [γ-^33P]ATP to a final concentration of 1000 μM. The final concentration of PI3K isoforms α, β, δ and γ in the assay were 1.3, 9.4, 2.9 and 10.8 nM respectively. Reactions were incubated for 180 min and terminated by the addition of 100 μL of 1 M potassium phosphate pH 8.0, 30 mM EDTA quench buffer. […] After the plate sealing, the radioactivity of the product was determined by scintillation counting on Topcount (Perkin-Elmer). […]

PI3Kβ = PI3Kβ (Homo sapiens (Human), UniProt P42338); test: PI3K enzyme assay, [γ-33P]ATP filter plate (Example A2), PI3Kβ; assay type: biochemical; settings: read-out: PI3Kβ^c IC50
Sequence of PI3Kβ (P42338 whole entry, species assumed, canonical isoform): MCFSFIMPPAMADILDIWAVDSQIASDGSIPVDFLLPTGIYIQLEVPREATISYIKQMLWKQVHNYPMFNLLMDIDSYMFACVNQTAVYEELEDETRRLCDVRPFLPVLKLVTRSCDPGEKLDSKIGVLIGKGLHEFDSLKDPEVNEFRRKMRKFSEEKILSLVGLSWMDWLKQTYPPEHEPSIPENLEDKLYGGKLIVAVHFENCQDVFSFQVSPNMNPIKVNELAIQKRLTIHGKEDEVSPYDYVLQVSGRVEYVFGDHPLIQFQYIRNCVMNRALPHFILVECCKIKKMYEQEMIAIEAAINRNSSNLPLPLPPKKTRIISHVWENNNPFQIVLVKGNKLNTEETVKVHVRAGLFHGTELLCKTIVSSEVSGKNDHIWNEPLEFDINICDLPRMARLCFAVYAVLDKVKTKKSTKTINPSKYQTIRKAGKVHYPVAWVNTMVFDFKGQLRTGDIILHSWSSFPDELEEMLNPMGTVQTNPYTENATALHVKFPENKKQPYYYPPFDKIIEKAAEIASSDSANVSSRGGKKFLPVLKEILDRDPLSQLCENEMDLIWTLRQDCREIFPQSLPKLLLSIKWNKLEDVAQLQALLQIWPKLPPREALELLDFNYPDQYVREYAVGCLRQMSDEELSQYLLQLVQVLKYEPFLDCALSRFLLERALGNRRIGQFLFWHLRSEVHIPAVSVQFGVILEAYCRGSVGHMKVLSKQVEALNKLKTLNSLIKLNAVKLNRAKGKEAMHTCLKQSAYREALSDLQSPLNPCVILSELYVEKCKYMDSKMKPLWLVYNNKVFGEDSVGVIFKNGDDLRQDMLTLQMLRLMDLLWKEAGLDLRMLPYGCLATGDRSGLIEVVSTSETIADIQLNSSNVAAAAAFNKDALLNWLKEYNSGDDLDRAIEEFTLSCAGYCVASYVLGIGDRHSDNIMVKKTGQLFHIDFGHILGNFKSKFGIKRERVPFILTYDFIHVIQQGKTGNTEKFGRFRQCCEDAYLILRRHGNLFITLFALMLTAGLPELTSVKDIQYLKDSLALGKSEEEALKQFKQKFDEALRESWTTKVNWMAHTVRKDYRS
Sequence of PI3Kβ (P27986 whole entry partner, species assumed, canonical isoform): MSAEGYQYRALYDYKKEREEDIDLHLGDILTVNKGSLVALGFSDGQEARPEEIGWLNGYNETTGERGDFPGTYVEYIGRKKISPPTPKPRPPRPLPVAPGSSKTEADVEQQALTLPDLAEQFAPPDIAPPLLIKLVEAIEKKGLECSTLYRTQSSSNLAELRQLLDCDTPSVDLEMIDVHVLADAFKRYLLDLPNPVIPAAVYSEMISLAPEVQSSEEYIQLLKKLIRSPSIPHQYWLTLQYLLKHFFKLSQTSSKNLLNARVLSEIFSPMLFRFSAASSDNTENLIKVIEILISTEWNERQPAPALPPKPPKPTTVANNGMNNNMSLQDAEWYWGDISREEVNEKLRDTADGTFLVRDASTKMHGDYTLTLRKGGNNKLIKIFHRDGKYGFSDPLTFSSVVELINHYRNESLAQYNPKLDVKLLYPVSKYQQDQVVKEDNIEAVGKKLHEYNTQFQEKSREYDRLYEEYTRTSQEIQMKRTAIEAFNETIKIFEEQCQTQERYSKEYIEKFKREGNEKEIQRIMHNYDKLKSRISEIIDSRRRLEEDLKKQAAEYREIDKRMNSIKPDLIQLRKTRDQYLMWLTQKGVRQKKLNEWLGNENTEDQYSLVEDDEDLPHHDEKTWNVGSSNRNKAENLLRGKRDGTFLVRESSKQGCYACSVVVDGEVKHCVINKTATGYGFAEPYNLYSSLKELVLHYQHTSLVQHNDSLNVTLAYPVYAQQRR
Experimental: as §1, with “Materials: Lipid kinase substrate, phosphoinositol-4,5-bisphosphate (PIP2), was purchased from Echelon Biosciences (Salt Lake City, Utah). PI3K isoforms α, β, δ and γ were purchased from Millipore (Bedford, Mass.). ATP, MgCl2, DTT, EDTA, MOPS and CHAPS were purchased from Sigma—Aldrich (St. Louis, Mo.). The kinase” for “The kinase”, “1000 μM. […] Reactions were” for “1000 μM. The final concentration of PI3K isoforms α, β, δ and γ in the assay were 1.3, 9.4, 2.9 and 10.8 nM respectively. Reactions were”

PI3Kα = PI3Kα (Homo sapiens (Human), UniProt P42336); test: PI3K enzyme assay, [γ-33P]ATP filter plate (Example A2), PI3Kα; assay type: biochemical; settings: read-out: PI3Kα^c IC50
Sequence of PI3Kα (P42336 whole entry, species assumed, canonical isoform): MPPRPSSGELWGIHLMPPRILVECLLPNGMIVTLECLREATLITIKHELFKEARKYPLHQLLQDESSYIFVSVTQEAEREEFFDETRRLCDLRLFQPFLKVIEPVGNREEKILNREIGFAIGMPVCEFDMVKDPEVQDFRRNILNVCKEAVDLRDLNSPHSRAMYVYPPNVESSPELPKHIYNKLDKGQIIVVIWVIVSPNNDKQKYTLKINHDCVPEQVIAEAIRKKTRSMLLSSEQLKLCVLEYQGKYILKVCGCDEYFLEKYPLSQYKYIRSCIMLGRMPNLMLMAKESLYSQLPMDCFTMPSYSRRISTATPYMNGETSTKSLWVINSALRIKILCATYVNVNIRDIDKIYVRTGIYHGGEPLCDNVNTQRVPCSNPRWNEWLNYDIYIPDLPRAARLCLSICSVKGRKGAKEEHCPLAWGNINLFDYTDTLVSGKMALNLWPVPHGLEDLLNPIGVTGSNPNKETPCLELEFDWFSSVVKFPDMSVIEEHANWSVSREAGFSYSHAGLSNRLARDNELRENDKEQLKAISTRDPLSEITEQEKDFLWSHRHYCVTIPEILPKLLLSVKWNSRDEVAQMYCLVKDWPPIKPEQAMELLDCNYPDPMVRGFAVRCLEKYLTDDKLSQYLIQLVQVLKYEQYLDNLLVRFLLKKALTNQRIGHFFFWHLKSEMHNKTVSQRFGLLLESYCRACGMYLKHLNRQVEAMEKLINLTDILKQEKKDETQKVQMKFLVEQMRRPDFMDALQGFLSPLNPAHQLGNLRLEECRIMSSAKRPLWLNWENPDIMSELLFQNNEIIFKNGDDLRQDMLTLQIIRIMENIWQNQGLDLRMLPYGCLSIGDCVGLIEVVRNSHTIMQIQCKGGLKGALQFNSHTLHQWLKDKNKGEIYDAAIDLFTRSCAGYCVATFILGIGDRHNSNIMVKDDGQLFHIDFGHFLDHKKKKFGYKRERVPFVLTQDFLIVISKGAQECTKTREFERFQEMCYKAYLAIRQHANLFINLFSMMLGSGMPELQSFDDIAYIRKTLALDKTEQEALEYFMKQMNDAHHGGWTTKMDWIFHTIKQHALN
Sequence of PI3Kα (P27986 whole entry partner, species assumed, canonical isoform): as the sequence (P27986 whole entry partner, species assumed, canonical isoform) above
Experimental: Materials: Lipid kinase substrate, phosphoinositol-4,5-bisphosphate (PIP2), was purchased from Echelon Biosciences (Salt Lake City, Utah). PI3K isoforms α, β, δ and γ were purchased from Millipore (Bedford, Mass.). […] The kinase reaction was conducted in clear-bottom 96-well plate from Thermo Fisher Scientific in a final volume of 24 μL. Inhibitors were first diluted serially in DMSO and added to the plate wells before the addition of other reaction components. The final concentration of DMSO in the assay was 0.5%. The PI3K assays were carried out at room temperature in 20 mM MOPS, pH 6.7, 10 mM MgCl2, 5 mM DTT and CHAPS 0.03%. The reaction mixture was prepared containing 50 μM PIP2, kinase and varying concentration of inhibitors. Reactions were initiated by the addition of ATP containing 2.2 μCi [γ-^33P]ATP to a final concentration of 1000 μM. […] Reactions were incubated for 180 min and terminated by the addition of 100 μL of 1 M potassium phosphate pH 8.0, 30 mM EDTA quench buffer. […] The filter plate was aspirated on a Millipore Manifold under vacuum and washed with 18×200 μL wash buffer containing 1 M potassium phosphate pH 8.0 and 1 mM ATP. After drying by aspiration and blotting, the plate was air dried in an incubator at 37° C. overnight. […] After the plate sealing, the radioactivity of the product was determined by scintillation counting on Topcount (Perkin-Elmer). […]

[1] = system: Pfeiffer cell line (diffuse large B cell lymphoma); test: Pfeiffer cell proliferation assay (Example B2); assay type: cell-based; settings: Homo sapiens, Pfeiffer, Pfeiffer cells, [3H]-thymidine
Experimental: Pfeiffer cell line (diffuse large B cell lymphoma) was purchased from ATCC (Manassas, Va.) and maintained in the culture medium recommended (RPMI and 10% FBS). To measure the anti-proliferation activity of the PI3Kδ submittals, the Pfeiffer cells were plated with the culture medium (2×10^3 cells/well/per 200 μl) into 96-well ultra-low binding plates (Corning, Corning, N.Y.), in the presence or absence of a concentration range of test compounds. After 3-4 days, [^3H]-thymidine (1 μCi/well) (PerkinElmer, Boston, Mass.) in PBS was then added to the cell culture for an additional 12 hrs before the incorporated radioactivity was separated by filtration with water through GF/B filters (Packard Bioscience, Meridenj, Conn.) and measured by liquid scintillation counting with a TopCount (Packard Bioscience). See Table 3 for data related to compounds of the invention.

B cells = test: B cell proliferation assay (Example B1); assay type: cell-based; settings: B-cell; purified human B cells, anti-human IgM, [3H]-thymidine
Experimental: To acquire B cells, human PBMC were isolated from the peripheral blood of normal, drug free donors by standard density gradient centrifugation on Ficoll-Hypague (GE Healthcare, Piscataway, N.J.) and incubated with anti-CD19 microbeads (Miltenyi Biotech, Auburn, Calif.). The B cells were then purified by positive immunosorting using an autoMacs (Miltenyi Biotech) according to the manufacturer's instruction.
The purified B cells (2×10^5/well/200 μL) were cultured in 96-well ultra-low binding plates (Corning, Corning, N.Y.) in RPMI1640, 10% FBS and goat F(ab′)2 anti-human IgM ([…]) (Invitrogen, Carlsbad, Calif.), in the presence of different amount of test compounds, […] [^3H]-thymidine (1 μCi/well) (PerkinElmer, Boston, Mass.) in PBS was then added to the B cell cultures for an additional 12 hrs before the incorporated radioactivity was separated by filtration with water through GF/B filters (Packard Bioscience, Meriden, Conn.) and measured by liquid scintillation counting with a TopCount (Packard Bioscience). […] See Table 2 for data related to compounds of the invention.

Sequence of PI3Kγ (P48736 whole entry, species assumed, canonical isoform): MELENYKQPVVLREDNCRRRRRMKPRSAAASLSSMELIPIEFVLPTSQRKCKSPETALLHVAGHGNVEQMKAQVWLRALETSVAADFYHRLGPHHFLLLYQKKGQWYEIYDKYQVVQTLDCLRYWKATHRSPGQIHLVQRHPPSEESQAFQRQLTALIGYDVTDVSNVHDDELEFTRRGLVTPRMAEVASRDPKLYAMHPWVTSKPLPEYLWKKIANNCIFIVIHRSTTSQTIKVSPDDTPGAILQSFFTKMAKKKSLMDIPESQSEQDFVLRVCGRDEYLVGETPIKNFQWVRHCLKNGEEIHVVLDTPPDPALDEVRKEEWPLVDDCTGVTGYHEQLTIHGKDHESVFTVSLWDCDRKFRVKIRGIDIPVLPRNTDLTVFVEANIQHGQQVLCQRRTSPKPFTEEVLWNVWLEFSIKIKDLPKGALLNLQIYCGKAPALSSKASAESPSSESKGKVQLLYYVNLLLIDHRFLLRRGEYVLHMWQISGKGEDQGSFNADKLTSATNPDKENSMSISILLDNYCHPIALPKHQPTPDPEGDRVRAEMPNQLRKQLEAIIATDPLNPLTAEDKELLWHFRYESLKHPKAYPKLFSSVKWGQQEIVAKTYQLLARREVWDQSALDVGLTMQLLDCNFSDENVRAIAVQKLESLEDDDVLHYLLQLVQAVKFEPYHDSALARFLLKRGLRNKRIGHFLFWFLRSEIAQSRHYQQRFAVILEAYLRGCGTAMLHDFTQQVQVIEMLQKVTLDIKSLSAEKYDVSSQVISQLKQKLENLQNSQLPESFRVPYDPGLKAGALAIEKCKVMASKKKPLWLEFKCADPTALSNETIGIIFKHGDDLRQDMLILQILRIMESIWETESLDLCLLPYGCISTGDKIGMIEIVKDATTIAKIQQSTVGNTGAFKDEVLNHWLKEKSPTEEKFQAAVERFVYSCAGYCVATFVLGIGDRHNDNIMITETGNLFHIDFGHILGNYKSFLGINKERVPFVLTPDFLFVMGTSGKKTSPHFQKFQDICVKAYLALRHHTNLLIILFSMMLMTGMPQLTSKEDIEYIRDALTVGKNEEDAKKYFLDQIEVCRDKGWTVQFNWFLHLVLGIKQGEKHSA

For Cc1csc2nc(C(C)Nc3ncnc4[nH]cnc34)c(-c3cc(F)cc(F)c3)c(=O)n12 (single isomer, unassigned) [Example 44, 6-(3,5-difluorophenyl)-3-methyl-7-[1-(9H-purin-6-ylamino)ethyl]-5H-[1,3]thiazolo[3,2-a]pyrimidin-5-one], the IC50 (PI3Kγ) was > 500 nM, the IC50 (PI3Kβ) was > 500 nM and the IC50 (PI3Kα) was > 500 nM.

In the case of CCC(Nc1ncnc2[nH]cnc12)c1nc2cccc(C)n2c(=O)c1-c1cncc(F)c1 (stereo not shown) [Example 3, 3-(5-fluoropyridin-3-yl)-6-methyl-2-[1-(9H-purin-6-ylamino)propyl]-4H-pyrido[1,2-a]pyrimidin-4-one], the IC50 [1] is reported as 100 to 500 nM and the IC50 (B cells) is reported as < 50 nM.

For CCC(Nc1ncnc2[nH]cnc12)c1nc2cccc(C)n2c(=O)c1-c1cn[nH]c1 (stereo not shown) [Example 7, 6-methyl-2-[1-(9H-purin-6-ylamino)propyl]-3-(1H-pyrazol-4-yl)-4H-pyrido[1,2-a]pyrimidin-4-one], the IC50 [1] was 500 to 1000 nM and the IC50 (B cells) was > 500 nM.

In the case of Cc1cccc2nc(C(C)n3cnc4c(N)ncnc43)c(-c3ccccc3)c(=O)n12 (stereo not shown) [Example 1, 2-[1-(6-amino-9H-purin-9-yl)ethyl]-6-methyl-3-phenyl-4H-pyrido[1,2-a]pyrimidin-4-one], the IC50 [1] is reported as 100 to 500 nM and the IC50 (B cells) is reported as < 50 nM.

For CCC(Nc1ncnc2[nH]cnc12)c1nc2cccc(C)n2c(=O)c1-c1cc(F)cc(F)c1 (stereo not shown) [Example 5, 3-(3,5-difluorophenyl)-6-methyl-2-[1-(9H-purin-6-ylamino)propyl]-4H-pyrido[1,2-a]pyrimidin-4-one], the IC50 [1] was 50 to 100 nM and the IC50 (B cells) was < 50 nM.

With Cc1csc2nc(C(C)Nc3ncnc4[nH]cnc34)c(-c3cccc(F)c3)c(=O)n12 (stereo not shown) [Example 10, 6-(3-fluorophenyl)-3-methyl-7-[1-(9H-purin-6-ylamino)ethyl]-5H-[1,3]thiazolo[3,2-a]pyrimidin-5-one] the IC50 [1] was < 50 nM and the IC50 (B cells) was < 50 nM.
